Data published in the supplement of paper PMC13380429.

What was measured:
[1] = system: A549-ACE2 infected with SARS-CoV-2; experiment: morphology score (similarity to uninfected cells); higher = more like uninfected cells; conditions: 24 h
[2] = system: A549-ACE2 infected with SARS-CoV-2; experiment: SARS-CoV-2 infection rate relative to DMSO; higher = more infection; conditions: 24 h
[3] = system: A549-ACE2 infected with SARS-CoV-2; experiment: cell count relative to DMSO; higher = less toxic; conditions: 24 h
U2OS [4] = experiment: cell viability relative to DMSO; higher = less toxic; conditions: 72 h
Caco-2 [5] = experiment: as above; conditions: 72 h
HepG2 [6] = experiment: as above; conditions: 72 h
Calu-3 [7] = experiment: as above; conditions: 72 h
Vero E6 [8] = experiment: as above; conditions: 72 h
U2OS [9] = experiment: drug sensitivity score (DSS) for viability; higher = more toxic; extreme values may be limits of the assay; conditions: 72 h
Caco-2 [10] = experiment: as above; conditions: 72 h
HepG2 [11] = experiment: as above; conditions: 72 h
Calu-3 [12] = experiment: as above; conditions: 72 h
Vero E6 [13] = experiment: as above; conditions: 72 h
U2OS [14] = experiment: relative viability EC50 (midpoint between 100% and the lowest measured viability); higher = less toxic; conditions: 72 h
Caco-2 [15] = experiment: as above; conditions: 72 h
HepG2 [16] = experiment: as above; conditions: 72 h
Calu-3 [17] = experiment: as above; conditions: 72 h
Vero E6 [18] = experiment: as above; conditions: 72 h
A549-ACE2 = experiment: drug-induced phospholipidosis relative to tamoxifen; higher = more phospholipidosis; conditions: 24 h

COC(=O)[C@@]12OC[C@]34[C@H]([C@@H](O)[C@@H]1O)[C@@]1(C)CC(=O)C(O)=C(C)[C@@H]1C[C@H]3OC(=O)[C@H](OC(=O)/C=C(\C)C(C)C)[C@@H]24 [bruceantin]
Conditions	SARS-CoV-2 infection rate, [2] [%]	cell count, [3] [%]	cell viability, Caco-2 [5] [%]	cell viability, Calu-3 [7] [%]	cell viability, HepG2 [6] [%]	cell viability, U2OS [4] [%]	cell viability, Vero E6 [8] [%]	morphology score, [1]
1 nM	–	–	102	96.7	92.8	103	101	–
10 nM	–	–	78.4	102	76.2	58.3	104	–
0.1 µM	12	62	–	–	–	–	–	0.3
100 nM	–	–	37.7	41.4	13.8	9	59.1	–
0.3 µM	16	62	–	–	–	–	–	0.26
1 µM	20	54	–	–	–	–	–	0.24
1000 nM	–	–	25.5	26.5	4.6	1.8	11.4	–
3 µM	12	38	–	–	–	–	–	0.33
10000 nM	–	–	22.4	21	0.9	0.1	2.5	–

Conditions	drug sensitivity score	relative viability EC50 [µM]
Caco-2 [10]	23.9	–
Caco-2 [15]	–	0.0261
Calu-3 [12]	21.3	–
Calu-3 [17]	–	0.0659
HepG2 [11]	31	–
HepG2 [16]	–	0.0238
U2OS [9]	34.5	–
U2OS [14]	–	0.0133
Vero E6 [13]	21.5	–
Vero E6 [18]	–	0.133

CC[C@H]1CN2CCc3cc(OC)c(OC)cc3[C@@H]2C[C@@H]1C[C@H]1NCCc2cc(OC)c(OC)cc21 [emetine]
Conditions	SARS-CoV-2 infection rate [%]	cell count [%]	cell viability [%]	drug-induced phospholipidosis [%]	morphology score
A549-ACE2, 0.3 µM	–	–	–	3.73	–
A549-ACE2, 0.833333 µM	–	–	–	5.74	–
Calu-3 [7], 1 nM	–	–	105	–	–
Calu-3 [7], 10 nM	–	–	109	–	–
Calu-3 [7], 100 nM	–	–	99.7	–	–
Calu-3 [7], 1000 nM	–	–	35.3	–	–
Calu-3 [7], 10000 nM	–	–	30.8	–	–
HepG2 [6], 1 nM	–	–	91.7	–	–
HepG2 [6], 10 nM	–	–	97.8	–	–
HepG2 [6], 100 nM	–	–	26.1	–	–
HepG2 [6], 1000 nM	–	–	14.5	–	–
HepG2 [6], 10000 nM	–	–	4.5	–	–
U2OS [4], 1 nM	–	–	101	–	–
U2OS [4], 10 nM	–	–	99.7	–	–
U2OS [4], 100 nM	–	–	43.5	–	–
U2OS [4], 1000 nM	–	–	7	–	–
U2OS [4], 10000 nM	–	–	2	–	–
Vero E6 [8], 1 nM	–	–	94.3	–	–
Vero E6 [8], 10 nM	–	–	103	–	–
Vero E6 [8], 100 nM	–	–	54.9	–	–
Vero E6 [8], 1000 nM	–	–	14	–	–
Vero E6 [8], 10000 nM	–	–	6.9	–	–
[1], 0.1 µM	–	–	–	–	0.87
[1], 0.3 µM	–	–	–	–	0.7
[1], 1 µM	–	–	–	–	0.44
[1], 3 µM	–	–	–	–	0.43
[2], 0.1 µM	5	–	–	–	–
[2], 0.3 µM	5	–	–	–	–
[2], 1 µM	19	–	–	–	–
[2], 3 µM	23	–	–	–	–
[3], 0.1 µM	–	102	–	–	–
[3], 0.3 µM	–	91	–	–	–
[3], 1 µM	–	69	–	–	–
[3], 3 µM	–	59	–	–	–

Conditions	drug sensitivity score	relative viability EC50 [µM]
Calu-3 [12]	12	–
Calu-3 [17]	–	0.375
HepG2 [11]	26.2	–
HepG2 [16]	–	0.0543
U2OS [9]	24.3	–
U2OS [14]	–	0.0846
Vero E6 [13]	21.9	–
Vero E6 [18]	–	0.107

C[C@H]1CNCCCN1S(=O)(=O)c1cccc2cncc(F)c12 [ripasudil]
cell viability [%]
Conditions	Caco-2 [5]	Calu-3 [7]	HepG2 [6]	U2OS [4]	Vero E6 [8]
1 nM	92	88.6	111	98.4	109
10 nM	90.4	98.1	101	100	103
100 nM	87.5	102	101	99.4	105
1000 nM	99.2	138	92.1	99.8	91.6
10000 nM	101	143	88	92.9	88.7

Conditions	drug sensitivity score	relative viability EC50 [µM]
Caco-2 [10]	0	–
Caco-2 [15]	–	> 10
Calu-3 [12]	0	–
Calu-3 [17]	–	> 10
HepG2 [11]	0.3	–
HepG2 [16]	–	> 10
U2OS [9]	0	–
U2OS [14]	–	> 10
Vero E6 [13]	0.2	–
Vero E6 [18]	–	> 10

O=P(O)(O)C(O)(Cc1cccnc1)P(=O)(O)O [risedronate]
cell viability [%]
Conditions	Caco-2 [5]	Calu-3 [7]	HepG2 [6]	U2OS [4]	Vero E6 [8]
1 nM	95.6	97.9	83.2	102	93.1
10 nM	103	98.7	97.1	96.1	98.7
100 nM	94.1	103	95.5	98	93
1000 nM	97.8	99.2	93.2	96.2	94.8
10000 nM	94.7	104	101	96	104

Conditions	drug sensitivity score	relative viability EC50 [µM]
Caco-2 [10]	0	–
Caco-2 [15]	–	> 10
Calu-3 [12]	0	–
Calu-3 [17]	–	> 10
HepG2 [11]	0	–
HepG2 [16]	–	> 10
U2OS [9]	0	–
U2OS [14]	–	> 10
Vero E6 [13]	0	–
Vero E6 [18]	–	> 10

CCCN1CCCC[C@H]1C(=O)Nc1c(C)cccc1C [ropivacaine]
cell viability [%]
Conditions	Caco-2 [5]	Calu-3 [7]	HepG2 [6]	U2OS [4]	Vero E6 [8]
1 nM	90.8	107	96.5	96.6	103
10 nM	101	106	96.7	97.9	103
100 nM	92.6	90.7	89.2	92.2	98.3
1000 nM	102	103	95.6	99	98.7
10000 nM	95.3	97.5	99.4	97.4	98.1

Conditions	drug sensitivity score	relative viability EC50 [µM]
Caco-2 [10]	0	–
Caco-2 [15]	–	> 10
Calu-3 [12]	0	–
Calu-3 [17]	–	> 10
HepG2 [11]	0	–
HepG2 [16]	–	> 10
U2OS [9]	0	–
U2OS [14]	–	> 10
Vero E6 [13]	0	–
Vero E6 [18]	–	> 10

O=C(/C=C/c1ccc(O)c(O)c1)O[C@H](Cc1ccc(O)c(O)c1)C(=O)O [rosmarinic-acid]
cell viability [%]
Conditions	Caco-2 [5]	Calu-3 [7]	HepG2 [6]	U2OS [4]	Vero E6 [8]
1 nM	91.5	105	98.8	101	102
10 nM	102	109	111	103	103
100 nM	87.7	101	106	94.8	99.1
1000 nM	99.1	88.5	96.7	104	96.4
10000 nM	88	94.5	102	98.6	99.6

Conditions	drug sensitivity score	relative viability EC50 [µM]
Caco-2 [10]	0	–
Caco-2 [15]	–	> 10
Calu-3 [12]	0.4	–
Calu-3 [17]	–	> 10
HepG2 [11]	0	–
HepG2 [16]	–	> 10
U2OS [9]	0	–
U2OS [14]	–	> 10
Vero E6 [13]	0	–
Vero E6 [18]	–	> 10
